Patent US20260159520A1, “HETEROBIFUNCTIONAL COMPOUNDS AND METHODS OF TREATING DISEASE” (Halda Therapeutics OpCo, Inc., priority 2022, published 2026)

Legend:
androgen receptor = target: T1, androgen receptor (Homo sapiens, UniProt P10275); test: Binding affinity to androgen receptor ([3H]methyltrienolone radioligand, cell cytosol); conditions: Table 6
T1 construct: endogenous in cells; host or cells: unnamed cells (cytosol fraction)
T1 sequence (P10275 1-920): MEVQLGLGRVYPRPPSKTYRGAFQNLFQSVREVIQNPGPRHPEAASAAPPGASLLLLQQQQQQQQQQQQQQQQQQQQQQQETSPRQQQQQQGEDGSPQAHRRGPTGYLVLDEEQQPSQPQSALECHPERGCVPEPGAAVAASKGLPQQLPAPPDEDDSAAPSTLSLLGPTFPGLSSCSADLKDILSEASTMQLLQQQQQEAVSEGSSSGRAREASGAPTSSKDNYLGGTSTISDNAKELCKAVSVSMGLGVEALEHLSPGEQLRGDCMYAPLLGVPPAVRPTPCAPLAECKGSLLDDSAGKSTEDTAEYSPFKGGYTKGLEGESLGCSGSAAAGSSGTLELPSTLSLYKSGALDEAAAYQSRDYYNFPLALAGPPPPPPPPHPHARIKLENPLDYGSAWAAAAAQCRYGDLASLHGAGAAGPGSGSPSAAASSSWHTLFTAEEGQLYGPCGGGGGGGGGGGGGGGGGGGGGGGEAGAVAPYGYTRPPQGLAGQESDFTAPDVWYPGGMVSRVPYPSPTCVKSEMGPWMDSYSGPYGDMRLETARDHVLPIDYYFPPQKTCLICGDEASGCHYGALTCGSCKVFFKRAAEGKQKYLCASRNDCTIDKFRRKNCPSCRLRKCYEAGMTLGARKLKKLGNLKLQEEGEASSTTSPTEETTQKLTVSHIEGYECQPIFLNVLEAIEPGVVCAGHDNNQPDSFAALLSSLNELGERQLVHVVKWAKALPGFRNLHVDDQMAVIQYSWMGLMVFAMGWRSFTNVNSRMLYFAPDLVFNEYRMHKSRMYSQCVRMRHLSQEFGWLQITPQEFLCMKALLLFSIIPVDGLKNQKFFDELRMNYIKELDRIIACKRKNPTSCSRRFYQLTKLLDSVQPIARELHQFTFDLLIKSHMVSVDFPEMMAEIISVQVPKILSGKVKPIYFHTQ
Procedure: Fractions of cell cytosol ([…]) were incubated for 24 hr at 4° C. with 1 nM [^3H]methyltrienolone in the absence or presence of the test compound in a buffer containing 25 mM Hepes-Tris (pH 7.4), 1 mM EDTA, 10 mM Na2MoO4, 2 mM DTT, 5 μM triamcinolone acetonide, and 10% glycerol. Nonspecific binding was determined in the presence of 1 μM testosterone. Following incubation, the samples were filtered rapidly under vacuum through glass fiber filters (GF/B, Packard) presoaked with 0.3% PEI and rinsed several times with ice-cold 50 mM Tris-HCl using a 96-sample cell harvester (Unifilter, Packard). The filters were dried then counted for radioactivity in a scintillation counter (Topcount, Packard) using a scintillation cocktail (Microscint 0, Packard). The results are expressed as a percent inhibition of the control radioligand specific binding. The standard reference compound is testosterone, which is tested in each experiment at several concentrations to obtain a competition curve from which its IC50 is calculated.

[1] = tested on: T-Rex 293 cell line SC cells lacking increased expression of progesterone receptor isoform B protein; test: Cellular growth inhibition, T-Rex 293 SC cells without doxycycline; format: cell-based; conditions: not exposed to doxycycline, 72 hours, CellTiter-Glo 2.0
Procedure: The following types of cells were prepared for this experiment: (i) a T-Rex 293 cell line having increased expression of progesterone receptor isoform B protein due to exposure to doxycycline and (ii) a T-Rex 293 cell line lacking increased expression of progesterone receptor isoform B protein. Ability of the test compounds to inhibit proliferation of the foregoing cell types was evaluated according to the procedures set forth below.
The doxycycline-inducible progesterone receptor isoform B protein expressing cell line was established using the following protocol: T-Rex 293 cells were purchased from Invitrogen (Cat #R71007) and transfected using Lipofectamine 2000 with the wild-type progesterone receptor B protein sequence cloned into the pcDNA4/TO vector. Transfected cells were selected using 400 μg/mL Zeocin (Invitrogen Cat #R25001). Following selection, single clones were raised and maintained in Dulbecco's Modified Eagle Medium (DMEM) supplemented with 10% w/w Tetracycline-free fetal bovine serum (FBS) and 250 μg/mL Zeocin. Clones were analyzed for expression of progesterone receptor isoform B protein in the presence and absence of 10 ng/mL doxycycline (Sigma Cat #D9891), and a single doxycycline-inducible clone (hereinafter “SC”) was selected for use in downstream assays.
The SC cells were seeded on poly-D-lysine coated, black clear-bottom 384-well plates at 2500/well, in 25 μL Phenol Red Free Dulbecco's Modified Eagle Medium (DMEM) supplemented with 10% w/w charcoal-dextran treated fetal bovine serum (FBS) and 1% w/w pen-strep, with or without 10 ng/mL doxycycline. Pen-Strep is a commercially available mixture of penicillin G and streptomycin, which is used in mammalian cell culture media to prevent bacterial contamination. Phenol Red Free Dulbecco's Modified Eagle Medium (DMEM) supplemented with 10% w/w charcoal-dextran treated fetal bovine serum (FBS) and 1% w/w pen-strep, with or without 10 ng/mL doxycycline is herein referred to as Treatment Medium. Following seeding of cells in the plates, the plates were spun at 300×g for 30 seconds, then equilibrated to room temperature for 30 minutes, and then deposited in a humidified tissue culture incubator maintained at 37° C. with 5% CO2.
At 24 hours after seeding of the cells, dilutions of test compound were prepared in DMSO and dissolved in Treatment Medium, to achieve a final DMSO concentration of 0.5% w/w, thereby providing the Test Compound Solution. A 25 μL aliquot of the Test Compound Solution was added to cells in the well plates. An equal volume of a solution containing DMSO and Treatment Medium was used as a negative control. Following treatment of cells with Test Compound Solution or said equal volume of a solution containing DMSO and Treatment Medium, the plates were spun at 300×g for 30 seconds, and then left in an incubator for 72 hours.
At the end of the treatment duration, cell viability was quantified with CellTiter-Glo 2.0 reagent (Promega Cat #G9243). For this purpose, plates were equilibrated to room temperature for 30 minutes, and then 25 μL of CellTiter-Glo 2.0 reagent was added to cells in the plate wells. Plates were then agitated on a shaker for two minutes at 500 rpm and subsequently incubated at room temperature for 10 minutes. Following incubation, the plates were spun at 3000×g for 30 seconds, then sealed with an optical adhesive cover, and luminescence readings were measured with an EnVision Plate Reader (Perkin Elmer).
Data was normalized using zero luminescence for baseline. A four-parameter non-linear regression curve fit was applied to dose-response data in GraphPad Prism data analysis software to determine the half-maximal growth inhibitory concentration (GI50) for each test compound.

Row | Structure (SMILES) | Kd (androgen receptor) [nM] | GI50 [1] [nM]
1 | CCc1cnn2c(NCc3ccc(OCCN(C)c4ncc(C(=O)N[C@H]5C(C)(C)[C@H](Oc6ccc(C#N)c(Cl)c6)C5(C)C)cn4)nc3)cc(N3CCCC[C@H]3CCO)nc12 [Compound I-1] | < 50 | 
2 | CCc1cnn2c(NCc3ccc(OCCOCCOCCOCCOCCN(C)c4ncc(C(=O)N[C@H]5C(C)(C)[C@H](Oc6ccc(C#N)c(Cl)c6)C5(C)C)cn4)nc3)cc(N3CCCC[C@H]3CCO)nc12 [Compound I-3] |  | < 500
3 | CCc1cnn2c(NCc3ccc(OCCOCCOCCOCCOCCOC4CCN(c5ncc(C(=O)N[C@H]6C(C)(C)[C@H](Oc7ccc(C#N)c(Cl)c7)C6(C)C)cn5)CC4)nc3)cc(N3CCCC[C@H]3CCO)nc12 [Compound I-9] | < 50 | 
4 | CCc1cnn2c(NCc3ccc(OCCCCOCCOC4CCN(c5ncc(C(=O)N[C@H]6C(C)(C)[C@H](Oc7ccc(C#N)c(Cl)c7)C6(C)C)cn5)CC4)nc3)cc(N3CCCC[C@H]3CCO)nc12 [Compound I-34] | < 50 | 
5 | CCc1cnn2c(NCc3ccc(OCCN4CCN(CC5CCN(c6ncc(C(=O)N[C@H]7C(C)(C)[C@H](Oc8ccc(C#N)c(Cl)c8)C7(C)C)cn6)CC5)CC4)nc3)cc(N3CCCC[C@H]3CCO)nc12 [Compound I-41] |  | < 500
6 | CCc1cnn2c(NCc3ccc(OCCCCN4CCN(CC5CCN(c6ncc(C(=O)N[C@H]7C(C)(C)[C@H](Oc8ccc(C#N)c(Cl)c8)C7(C)C)cn6)CC5)CC4)nc3)cc(N3CCCC[C@H]3CCO)nc12 [Compound I-43] | < 50 | 
7 | CCc1cnn2c(NCc3ccc(OCCOCC4CCN(CC5CCN(c6ncc(C(=O)N[C@H]7C(C)(C)[C@H](Oc8ccc(C#N)c(Cl)c8)C7(C)C)cn6)CC5)CC4)nc3)cc(N3CCCC[C@H]3CCO)nc12 [Compound I-45] | < 50 | 
8 | CCc1cnn2c(NCc3ccc(OC4CCN(CC5CCN(c6ncc(C(=O)N[C@H]7C(C)(C)[C@H](Oc8ccc(C#N)c(Cl)c8)C7(C)C)cn6)CC5)CC4)nc3)cc(N3CCCC[C@H]3CCO)nc12 [Compound I-46] |  | < 500
9 | CCc1cnn2c(NCc3ccc(OCCN4CCN(CC5CCN(c6ncc(C(=O)N[C@H]7C(C)(C)[C@H](Oc8ccc(C#N)c(Cl)c8)C7(C)C)cn6)CC5)CC4)nc3)cc(-c3ccccc3)nc12 [Compound I-47, N-((1r,3r)-3-(3-chloro-4-cyanophenoxy)-2,2,4,4-tetramethylcyclobutyl)-2-(4-((4-(2-((5-(((3-ethyl-5-phenylpyrazolo[1,5-a]pyrimidin-7-yl)amino)methyl)pyridin-2-yl)oxy)ethyl)piperazin-1-yl)methyl)piperidin-1-yl)pyrimidine-5-carboxamide] | < 50 | 
10 | CCc1cnn2c(NCc3ccc(OCC4CCN(CC5CCN(c6ncc(C(=O)N[C@H]7C(C)(C)[C@H](Oc8ccc(C#N)c(Cl)c8)C7(C)C)cn6)CC5)CC4)nc3)cc(N3CCCC[C@H]3CCO)nc12 [Compound I-51] |  | < 500
11 | CCc1cnn2c(NCc3ccc(OCCCN4CCN(C5CN(c6ncc(C(=O)N[C@H]7C(C)(C)[C@H](Oc8ccc(C#N)c(Cl)c8)C7(C)C)cn6)C5)CC4)nc3)cc(N3CCCC[C@H]3CCO)nc12 [Compound I-60] | < 50 | 
12 | CCc1cnn2c(NCc3ccc(OCCCN4CCC(C5CN(c6ncc(C(=O)N[C@H]7C(C)(C)[C@H](Oc8ccc(C#N)c(Cl)c8)C7(C)C)cn6)C5)CC4)nc3)cc(N3CCCC[C@H]3CCO)nc12 [Compound I-61] | < 50 | 
13 | CCc1cnn2c(NCc3ccc(N4CCC(CN5CCC6CN(c7ncc(C(=O)N[C@H]8C(C)(C)[C@H](Oc9ccc(C#N)c(Cl)c9)C8(C)C)cn7)CCC6C5)CC4)nc3)cc(N3CCCC[C@H]3CCO)nc12 (stereo partly shown) [Compound I-71] | < 50 | 
14 | CCc1cnn2c(NCc3ccc(N4CC(OCCN5CC6CN(c7ncc(C(=O)N[C@H]8C(C)(C)[C@H](Oc9ccc(C#N)c(Cl)c9)C8(C)C)cn7)CC6C5)C4)nc3)cc(N3CCCC[C@H]3CCO)nc12 (stereo partly shown) [Compound I-72] | < 50 | 
15 | CC(C)n1cc(-c2ccnc3[nH]c(C4CCN(CCN5CCN(CC6CCN(c7ncc(C(=O)NC8C(C)(C)C(Oc9ccc(C#N)c(Cl)c9)C8(C)C)cn7)CC6)CC5)CC4)cc23)ccc1=O (stereo not shown) [Compound I-74, N-[3-(3-chloro-4-cyano-phenoxy)-2,2,4,4-tetramethyl-cyclobutyl]-2-[4-[[4-[2-[4-[4-(1-isopropyl-6-oxo-3-pyridyl)-1H-pyrrolo [2,3-b]pyridin-2-yl]-1-piperidyl]ethyl]piperazin-1-yl]methyl]-1-piperidyl]pyrimidine-5-carboxamide] |  | < 500
16 | CCc1cnn2c(NCc3ccc(N4CCC(N5CCN(C6CN(c7ncc(C(=O)N[C@H]8C(C)(C)[C@H](Oc9ccc(C#N)c(Cl)c9)C8(C)C)cn7)C6)CC5)CC4)nc3)cc(N3CCCC[C@H]3CCO)nc12 [Compound I-86] |  | < 500
17 | CC1(C)[C@H](NC(=O)c2cnc(N3CCC(CN4CCN(CCN5C/C=C/CCOc6cccc(c6)-c6ccnc(n6)Nc6cccc(c6)C5)CC4)CC3)nc2)C(C)(C)[C@H]1Oc1ccc(C#N)c(Cl)c1 [Compound I-94] |  | > 3000
18 | Cc1ncc(-c2nc(Nc3ccc(C(=O)N4CC[C@H](N(C)CCOC5CCN(c6ncc(C(=O)N[C@H]7C(C)(C)[C@H](Oc8ccc(C#N)c(Cl)c8)C7(C)C)cn6)CC5)C4)cc3)ncc2F)n1C(C)C [Compound I-95, N-[3-(3-chloro-4-cyano-phenoxy)-2,2,4,4-tetramethyl-cyclobutyl]-2-[4-[2-[[(3S)-1-[4-[[5-fluoro-4-(3-isopropyl-2-methyl-imidazol-4-yl)pyrimidin-2-yl]amino]benzoyl]pyrrolidin-3-yl]-methyl-amino]ethoxy]-1-piperidyl]pyrimidine-5-carboxamide] |  | < 500
19 | Cc1ncc(-c2nc(Nc3ccc(C(=O)N4CC[C@H](N(C)CCOCCOCCOC5CCN(c6ncc(C(=O)N[C@H]7C(C)(C)[C@H](Oc8ccc(C#N)c(Cl)c8)C7(C)C)cn6)CC5)C4)cc3)ncc2F)n1C(C)C [Compound I-96] |  | 1500 to 3000
